Values after ≈ are worked out from the molar mass of the structure shown.
Experiments:
Trichophyton asteroides = test: Antimycotic test against Trichophyton asteroides (in vitro, Sabouraud's dextrose broth); type: cell-based; conditions: read-out: Minimum Inhibitory Concentration (MIC)
Source text: Sabouraud's dextrose broth* was used as culture medium.

Candida albicans KE-2 [1] = test: Test on inhibition against formation of the pseudohyphae in Candida albicans; type: cell-based; conditions: KE2; Candida albicans KE-2, 1×10^6 cells/ml, Eagle broth + 20% bovine serum, 37° C., 18 hours; read-out: Inhibitory concentration against pseudohyphae formation
Experimental: To Eagle MEN broth (Nissan 2, Nissui Seiyaku Co., Ltd.) was added 20% bovine serum and inoculated Candida albicans KE-2 yeast cells at rate of 1×10^6 cells/ml (final inoculum size), and each test compound was added thereto in two-fold serial dilution method. After termination of cultivation at 37° C. for 18 hours, each organism of the serial dilution was smeared and fixed on a slide glass and stained by Giemsa's staining, and occurrence of the pseudohyphae was observed under a microscope. Minimum concentration which could inhibit the formation of pseudohyphae was regarded as the inhibitory concentration of the compound against pseudohyphae formation.

Candida albicans KE-2 [2] = test: Therapeutic effect against experimental candidasis in mice; type: in vivo, Jcl-ICR female mice; conditions: 15th day from infection; 25 mg/Kg oral, twice per day for 5 days; 5×10^5 Candida albicans KE-2 cells i.v.; eight mice; control 0
Experimental: Candida albicans KE-2 was cultured in a Sabouraud's dextrose agar at 28° C. for 48 hours, and the resulting culture was suspended in the Sabouraud's dextrose broth. The resulting cells (5×10^5) were intravenously administered at the tail of Jcl-ICR female mice (4 weeks age, body weight: 18-20 g). Each test compound suspended in 2% gum-arabic was orally administered at a dose of 25 mg/Kg twice per day for 5 days; on the first day, the test compound is administered twice, i.e., immediately after the infection and 2 hours later; on the second day or later, 24 hours after the administration of the previous day respectively. After the infection, no test compound was administered to a control group. Eight mice were employed in the control group and the test groups to which the test compound was administered The therapuetic effect was evaluated on the survival rate at the 15th day from the day of infection; the result is shown below.

[3] = in vivo, po; cited from earlier work

SMILES | MIC (Trichophyton asteroides) [µg/mL] | minimal effective concentration (Candida albicans KE-2 [1]) [µg/mL] | Survival rate (Candida albicans KE-2 [2]) [%] | adverse reactions [3]
CC(C)C1OC(=O)OC1(Cn1cncn1)c1ccc(Cl)cc1Cl (stereo not shown) [Compound 2] | 3.1 (≈ 8.7 µM) | 0.63 | 100 | 
CCCCC1OC(=O)OC1(Cn1cncn1)c1ccc(Cl)cc1Cl (stereo not shown) [Compound 4] | 0.2 (≈ 0.54 µM) |  |  | 
O=C1OC(c2ccc(Cl)cc2Cl)C(Cn2cncn2)(c2ccc(Cl)cc2)O1 (stereo not shown) [Compound 5] |  | 0.63 | 100 | 
O=C1OC(c2ccccc2Cl)C(Cn2cncn2)(c2ccccc2Cl)O1 (stereo not shown) [Compound 7] |  | 0.31 |  | 
O=C1OC(c2ccc(F)cc2)C(Cn2cncn2)(c2ccc(F)cc2)O1 (stereo not shown) [Compound 8] | 3.1 (≈ 8.68 µM) |  |  | 
Cc1ccc(C2OC(=O)OC2(Cn2cncn2)c2ccc(C)cc2)cc1 (stereo not shown) [Compound 11] |  | 1.25 |  | 
CCCC1OC(=O)OC1(Cn1cncn1)c1ccc(Cl)cc1Cl (stereo not shown) [Compound 12] | 1.6 (≈ 4.49 µM) |  |  | 
Cc1ccc(C2OC(=O)OC2(Cn2cncn2)c2ccccc2Cl)cc1 (stereo not shown) [Compound 15] | 3.1 (≈ 8.38 µM) | 0.63 |  | 
CCCC1OCOC1(Cn1cncn1)c1ccc(Cl)cc1 (stereo not shown) [Compound 33] | 0.2 (≈ 0.65 µM) | 0.16 |  | 
CC1(C)OC(c2ccc(Cl)cc2Cl)C(Cn2cncn2)(c2ccc(Cl)cc2)O1 (stereo not shown) [Compound 39, 4-(4-chlorophenyl)-5-(2,4-dichlorophenyl)-2,2-dimethyl-4-(1H-1,2,4-triazol-1-yl)methyl-1,3-dioxolane] | 0.8 (≈ 1.82 µM) | 5 |  | 
CC(=O)N1CCN(c2ccc(OCC3COC(Cn4ccnc4)(c4ccc(Cl)cc4Cl)O3)cc2)CC1 (stereo not shown) [Ketoconazole] |  |  |  | hepatic dysfunction

More lines, main results first:

MIC (Trichophyton asteroides) [µg/mL] | SMILES | minimal effective concentration (Candida albicans KE-2 [1]) [µg/mL] | Survival rate (Candida albicans KE-2 [2]) [%] | adverse reactions [3]
0.2 (≈ 0.471 µM) | O=C1OC(c2ccc(Cl)cc2)C(Cn2cncn2)(c2ccc(Cl)cc2Cl)O1 (single isomer, unassigned) [Compound 19] | 0.04 | 86 | 
0.1 (≈ 0.225 µM) | O=S1OC(c2ccc(Cl)cc2Cl)C(Cn2cncn2)(c2ccc(Cl)cc2)O1 (single isomer, unassigned) [Compound 27B] | 0.02 | 75 | 
0.1 (≈ 0.245 µM) | O=C1OC(c2ccc(F)cc2)C(Cn2cncn2)(c2ccc(Cl)cc2Cl)O1 (stereo not shown) [Compound 1, 4-(2,4-dichlorophenyl)-5-(4-fluorophenyl)-2-oxo-4-(1H-1,2,4-triazol-1-yl)methyl-1,3-dioxolane] | 0.31 | 87.5 | 
0.1 (≈ 0.256 µM) | O=C1OC(c2ccccc2)C(Cn2cncn2)(c2ccc(Cl)cc2Cl)O1 (stereo not shown) [Compound 3] |  |  | 
0.1 (≈ 0.257 µM) | O=C1OC(c2ccccc2)C(Cn2ccnc2)(c2ccc(Cl)cc2Cl)O1 (stereo not shown) [Compound 23] | 0.16 |  | 
0.1 (≈ 0.254 µM) | Fc1ccc(C2OCOC2(Cn2cncn2)c2ccc(Cl)cc2Cl)cc1 (stereo not shown) [Compound 34] | 0.31 |  | 
